# Measurements from US20090069300A1, “ISOQUINOLINYL AND ISOINDOLINYL DERIVATIVES AS HISTAMINE-3 ANTAGONISTS” (Wyeth, priority 2007, published 2009).
# Structures can show the parent of a compound that is named as a salt.
# Tested on: not given
# Assay: not given
# Details: not given
row,SMILES,melting point
1,"O=C(NCc1cccs1)c1ccc(-c2ccc3c(c2)CCN(CCN2CCCC2)C3=O)cc1 (as salt: hydrochloride) [Example 121, 4-[1-oxo-2-(2-pyrrolidin-1-ylethyl)-1,2,3,4-tetrahydroisoquinolin-6-yl]-N-(2-thienylmethyl)benzamide]",211 to 213.5 °C
2,"CCN(CC)C(=O)c1ccc(-c2ccc3c(c2)CCN(CCN2CCC[C@H]2C)C3=O)cc1 (as salt: hydrochloride) [Example 65, N,N-diethyl-4-(2-{2-[(2R)-2-methylpyrrolidin-1-yl]ethyl}-1-oxo-1,2,3,4-tetrahydroisoquinolin-6-yl)benzamide]",221 to 222 °C

# Next, values leading:
row,melting point,SMILES
1,171 to 172 °C,"C[C@H]1CCCN1C(=O)c1ccc(-c2ccc3c(c2)CCN(CCN2CCCC2)C3=O)cc1 (as salt: hydrochloride) [Example 81, 6-(4-{[(2S)-2-methylpyrrolidin-1-yl]carbonyl}phenyl)-2-(2-pyrrolidin-1-ylethyl)-3,4-dihydroisoquinolin-1(2H)-one]"
2,224 to 225 °C,"COc1ccc(-c2ccc3c(c2)CCN(CCN2CCCC2)C3=O)cc1 (as salt: hydrochloride) [Example 23, 6-(4-methoxyphenyl)-2-(2-pyrrolidin-1-ylethyl)-3,4-dihydroisoquinolin-1(2H)-one]"
3,182 to 184 °C,"O=C1c2ccc(-c3cccc(F)c3)cc2CCN1CCN1CCCC1 (as salt: hydrochloride) [Example 18, 6-(3-fluorophenyl)-2-(2-pyrrolidin-1-ylethyl)-3,4-dihydroisoquinolin-1(2H)-one]"

# Molecular target: T1, Human Histamine H3 Receptor (Homo sapiens, UniProt Q9Y5N1)
# T1 construct: expressed in transfected cells; host or cells: HEK293T (stably transfected; membranes prepared from the cells)
# Assay: Methyl histamine binding in human histamine H3 receptor cell line
# Details: read-out: H3 Binding Ki
# Outline: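 Radioligand binding on membranes (10 μg/well) from a human H3 receptor cell line, 1 nM radioligand, 1 h at 30° C. in 50 mM Tris pH 7.5. Nonspecific binding defined with 10 uM clobenpropit, followed by filtration and scintillation counting. IC50 from four-parameter fit, converted to Ki by Cheng-Prusoff.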
# T1 sequence (Q9Y5N1 whole entry): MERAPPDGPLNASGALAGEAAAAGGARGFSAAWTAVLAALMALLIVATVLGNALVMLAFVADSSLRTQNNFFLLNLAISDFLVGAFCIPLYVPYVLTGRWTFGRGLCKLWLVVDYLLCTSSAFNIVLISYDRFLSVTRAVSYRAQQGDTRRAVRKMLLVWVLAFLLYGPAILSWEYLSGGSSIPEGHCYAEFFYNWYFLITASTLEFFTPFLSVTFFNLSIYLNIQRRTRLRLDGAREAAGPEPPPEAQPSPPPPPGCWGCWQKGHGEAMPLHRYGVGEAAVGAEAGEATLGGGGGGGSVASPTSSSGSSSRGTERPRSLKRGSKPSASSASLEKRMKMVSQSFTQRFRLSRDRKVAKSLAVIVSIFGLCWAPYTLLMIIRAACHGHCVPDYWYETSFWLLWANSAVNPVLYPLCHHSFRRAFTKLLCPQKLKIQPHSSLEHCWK
row,SMILES,Ki
1,"CN(C)C(=O)c1ccc(-c2ccc3c(c2)CCN(CCN2CCCC2)C3)cc1 [Example 183, N,N-dimethyl-4-[2-(2-pyrrolidin-1-ylethyl)-1,2,3,4-tetrahydroisoquinolin-6-yl]benzamide]",< 10 nM
2,"C[C@@H]1CCCN1CCN1CCc2cc(C(=O)N3CCc4ccccc4C3)ccc2C1=O [Example 150, 6-(3,4-dihydroisoquinolin-2(1H)-ylcarbonyl)-2-{2-[(2R)-2-methylpyrrolidin-1-yl]ethyl}-3,4-dihydroisoquinolin-1(2H)-one]",< 10 nM
3,"O=C1c2ccc(Cn3cnc4ccccc43)cc2CN1CCN1CCCC1 [Example 112, 5-(1H-benzimidazol-1-ylmethyl)-2-(2-pyrrolidin-1-ylethyl)iso-indolin-1-one]",25.1 to 50 nM
4,"C[C@@H]1CCCN1CCN1CCc2cc(C(=O)N3CCCCCC3)ccc2C1=O [Example 144, 6-(azepan-1-ylcarbonyl)-2-{2-[(2R)-2-methylpyrrolidin-1-yl]ethyl}-3,4-dihydroisoquinolin-1(2H)-one]",< 10 nM
5,"O=C(NCc1ccco1)c1ccc(-c2ccc3c(c2)CCN(CCN2CCCC2)C3=O)cc1 [Example 125, N-(2-furylmethyl)-4-[1-oxo-2-(2-pyrrolidin-1-ylethyl)-1,2,3,4-tetrahydroisoquinolin-6-yl]benzamide]",< 10 nM
6,"N#Cc1ccc(Oc2ccc3c(c2)CCN(CCN2CCCC2)C3=O)cc1 [Example 50, 4-{[1-oxo-2-(2-pyrrolidin-1-ylethyl)-1,2,3,4-tetrahydroisoquinolin-6-yl]oxy}benzonitrile]",< 10 nM
7,"O=C1c2ccc(-c3ccc(F)cc3)cc2CCN1CCN1CCCCC1 [Example 43, 6-(4-fluorophenyl)-2-(2-piperidin-1-ylethyl)-3,4-dihydroiso-quinolin-1(2H)-one hydrochloride]",< 10 nM
8,"C[C@@H]1CCCN1C(=O)c1ccc(-c2ccc3c(c2)CCN(CCN2CCCC2)C3=O)cc1 [Example 82, 6-(4-{[(2R)-2-methylpyrrolidin-1-yl]carbonyl}phenyl)-2-(2-pyrrolidin-1-ylethyl)-3,4-dihydroisoquinolin-1(2H)-one]",< 10 nM
9,"CNC(=O)c1ccc(-c2ccc3c(c2)CCN(CCN2CCC[C@H]2C)C3=O)cc1 [Example 78, N-methyl-4-(2-{2-[(2R)-2-methylpyrrolidin-1-yl]ethyl}-1-oxo-1,2,3,4-tetrahydroisoquinolin-6-yl)benzamide]",< 10 nM
10,"O=C1c2ccc(-c3ccc(F)cc3F)cc2CCN1CCN1CCCC1 [Example 11, 6-(2,4-difluorophenyl)-2-(2-pyrrolidin-1-ylethyl)-3,4-dihydroisoquinolin-1(2H)-one]",< 10 nM

# Second part, the compound after the results:
row,Ki,SMILES
1,< 10 nM,"O=C1c2ccc(-c3ccc(C(F)(F)F)cc3)cc2CCN1CCN1CCCC1 [Example 22, 2-(2-pyrrolidin-1-ylethyl)-6-[4-(trifluoromethyl)phenyl]-3,4-dihydroisoquinolin-1(2H)-one]"
2,< 10 nM,"C[C@@H]1CCCN1CCN1CCc2cc(-c3ccc(C(=O)N4CCCC4)cc3)ccc2C1=O [Example 66, 2-{2-[(2R)-2-methylpyrrolidin-1-yl]ethyl}-6-[4-(pyrrolidin-1-ylcarbonyl)phenyl]-3,4-dihydroisoquinolin-1(2H)-one]"
3,< 10 nM,"O=C(c1cc(-c2ccc3c(c2)CCN(CCN2CCCC2)C3=O)ccc1F)N1CCCC1 [Example 131, 6-[4-fluoro-3-(pyrrolidin-1-ylcarbonyl)phenyl]-2-(2-pyrrolidin-1-ylethyl)-3,4-dihydroisoquinolin-1-(2H)-one]"
4,10.1 to 25 nM,"NC(=O)c1ccc(-c2ccc3c(c2)CCN(CCN2CCCC2)C3)cc1 [Example 180, 4-[2-(2-pyrrolidin-1-ylethyl)-1,2,3,4-tetrahydroisoquinolin-6-yl]benzamide]"
5,< 10 nM,"C[C@@H]1CCCN1CCN1CCc2cc(Oc3ccc(C#N)nc3)ccc2C1=O [Example 51, 5-[(2-{2-[(2R)-2-methylpyrrolidin-1-yl]ethyl}-1-oxo-1,2,3,4-tetrahydroisoquinolin-6-yl)oxy]pyridine-2-carbonitrile]"
6,< 10 nM,"CCNC(=O)c1ccc(-c2ccc3c(c2)CCN(CCN2CCCC2)C3=O)cc1 [Example 58, N-ethyl-4-[1-oxo-2-(2-pyrrolidin-1-ylethyl)-1,2,3,4-tetrahydroisoquinolin-6-yl]benzamide]"
7,< 10 nM,"O=C(NCC1CC1)c1ccc(-c2ccc3c(c2)CCN(CCN2CCCC2)C3=O)cc1 [Example 60, N-(cyclopropylmethyl)-4-[1-oxo-2-(2-pyrrolidin-1-ylethyl)-1,2,3,4-tetrahydroiso-quinolin-6-yl]benzamide]"
8,< 10 nM,"O=C1c2ccc(-c3cc(F)cc(F)c3)cc2CCN1CCN1CCCC1 [Example 10, 6-(3,5-difluorophenyl)-2-(2-pyrrolidin-1-ylethyl)-3,4-dihydroisoquinolin-1(2H)-one]"
9,< 10 nM,"O=C1c2ccc(-c3cccc(C(F)(F)F)c3)cc2CCN1CCN1CCCC1 [Example 20, 2-(2-pyrrolidin-1-ylethyl)-6-[3-(trifluoromethyl)phenyl]-3,4-dihydroisoquinolin-1(2H)-one]"
10,25.1 to 50 nM,"O=C1c2ccc(-c3cccc(OC(F)(F)F)c3)cc2CCN1CCN1CCCC1 [Example 13, 2-(2-pyrrolidin-1-ylethyl)-6-[3-(trifluoromethoxy)phenyl]-3,4-dihydroisoquinolin-1(2H)-one]"
11,< 10 nM,"CN(C)C(=O)c1ccc(-c2ccc3c(c2)CCN(CCN2CCCC2)C3=O)cc1 [Example 56, N,N-dimethyl-4-[1-oxo-2-(2-pyrrolidin-1-ylethyl)-1,2,3,4-tetrahydroisoquinolin-6-yl]benzamide]"
12,10.1 to 25 nM,"O=C(c1ccc(-c2ccc3c(c2)CCN(CCN2CCCC2)C3)cc1)N1CCCCC1 [Example 185, 6-[4-(piperidin-1-ylcarbonyl)phenyl]-2-(2-pyrrolidin-1-ylethyl)-1,2,3,4-tetrahydroisoquinoline]"
